Consider 36 compounds from US9475779B2, “Substituted bicyclic dihydropyrimidinones and their use as inhibitors of neutrophil elastase activity” (priority 2014, dated 2016).

Each structure is given as a SMILES string. Like-named read-outs stand apart in the source and are kept apart here.

The target of the assay is neutrophil elastase (Homo sapiens (Human), UniProt P08246). Kind of assay: biochemical. The assay is classed as biochemical.
Where [1] appears, read: Neutrophil Elastase assay, substrate MeOSuc-Ala-Ala-Pro-Val-AMC, read-out: IC50.

Sequence of neutrophil elastase (P08246 whole entry, looked up): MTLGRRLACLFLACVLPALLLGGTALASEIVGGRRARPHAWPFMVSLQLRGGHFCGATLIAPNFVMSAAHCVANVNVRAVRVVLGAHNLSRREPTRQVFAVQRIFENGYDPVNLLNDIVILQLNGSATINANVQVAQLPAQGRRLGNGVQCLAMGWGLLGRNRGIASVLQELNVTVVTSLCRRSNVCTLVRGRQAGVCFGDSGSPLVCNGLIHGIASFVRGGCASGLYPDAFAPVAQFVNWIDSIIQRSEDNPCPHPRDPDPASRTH
Protocol: Human Neutrophil Elastase Assay
All other materials were of the highest grade commercially available.
The following buffers were used: Compound buffer: 100 mM Tris, 500 mM NaCl, adjusted to pH 7.5; Assay buffer: 100 mM Tris, 500 mM NaCl, adjusted to pH 7.5, containing 0.01% BSA.
Assay conditions: Test compounds were prediluted in DMSO and subsequently in compound buffer (5% DMSO final). […] After inactivation of the enzyme, fluorescence intensities were measured at 380 nm excitation and 460 nm emission wavelengths.
Each plate contains wells with a high value control (DMSO+enzyme+substrate) and wells with a low value control (DMSO+inactivated enzyme+substrate). IC50 values were estimated using a sigmoidal concentration response curve with variable slope. Means of low values were taken as 0%, means of high values as 100%.

For the compound `CCS(=O)(=O)c1cc(C#N)ccc1C1C2=C(CCC2=O)N(c2ccnc(C(F)(F)F)c2)C(=O)N1C` (racemic) [Example D.3, 3-Ethanesulfonyl-4-[3-methyl-2,5-dioxo-1-(2-trifluoromethyl-pyridin-4-yl)-2,3,4,5,6,7-hexahydro-1H-cyclopentapyrimidin-4-yl]-benzonitrile], for the setting “read-out: IC50”, the IC50 is 4 nM. Under “IC50”, `CCNC(=O)N1C(=O)N(c2ccnc(C(F)(F)F)c2)C2=C(C(=O)CC2)C1c1ccc(C#N)cc1S(=O)(=O)CC` (racemic) [Example D.4.1, 4-(4-cyano-2-ethanesulfonyl-phenyl)-2,5-dioxo-1-(2-trifluoromethyl-pyridin-4-yl)-1,2,4,5,6,7-hexahydro-cyclopentapyrimidine-3-carboxylic acid ethylamide] displayed an IC50 of under 1 nM.

With `CCS(=O)(=O)c1cc(C#N)ccc1C1NC(=O)N(c2cccc(C(F)F)c2)C2=C1C(=O)CC2` (racemic) [Example D.5, 4-[1-(3-Difluoromethyl-phenyl)-2,5-dioxo-2,3,4,5,6,7-hexahydro-1H-cyclopentapyrimidin-4-yl]-3-ethanesulfonyl-benzonitrile], the IC50 (read-out: IC50) came to 5.5 nM. In the case of `CCNC(=O)N1C(=O)N(c2ccnc(C(F)(F)F)c2)C2=C(C(=O)CC2)C1c1ccc(C#N)cc1S(C)(=O)=O` (single isomer, unassigned) [D.4.10], under setting [1], the IC50 was under 1 nM. Compound `CN1C(=O)N(c2cccc(C(F)(F)F)c2)C2=C(C(=O)CC2)C1c1ccc(C#N)cc1CO` (single isomer, unassigned) [Example A.1B, 3-Hydroxymethyl-4-[3-methyl-2,5-dioxo-1-(3-trifluoromethyl-phenyl)-2,3,4,5,6,7-hexahydro-1H-cyclopentapyrimidin-4-yl]-benzonitrile] showed an IC50 (IC50) of 2780 nM. Consider `CN1C(=O)N(c2cccc(C(F)(F)F)c2)C2=C(C(=O)CC2)C1c1ccc(C#N)cc1S(=O)(=O)CCO` (single isomer, unassigned) [Example B.1.2A], for which 224 nM corresponded to half-maximal inhibition (IC50, Neutrophil Elastase assay, substrate MeOSuc-Ala-Ala-Pro-Val-AMC) (IC50). Consider `CN1C(=O)N(c2cccc(C(F)(F)F)c2)C2=C(C(=O)CC2)C1c1ccc(C#N)cc1[S+](C)[O-]` (single isomer, unassigned) [Example C.1A, 3-Methanesulfinyl-4-[3-methyl-2,5-dioxo-1-(3-trifluoromethyl-phenyl)-2,3,4,5,6,7-hexahydro-1H-cyclopentapyrimidin-4-yl]-benzonitrile], for which the IC50 under setting [1] is 1820 nM. For `CN1C(=O)N(c2cccc(C(F)(F)F)c2)C2=C(C(=O)CC2)C1c1ccc(C#N)cc1[S+](C)[O-]` (single isomer, unassigned) [Example C.2B, 3-Methanesulfinyl-4-[3-methyl-2,5-dioxo-1-(3-trifluoromethyl-phenyl)-2,3,4,5,6,7-hexahydro-1H-cyclopentapyrimidin-4-yl]-benzonitrile], under setting [1], the IC50 was determined as 13 nM. As to `CC[S+]([O-])c1cc(C#N)ccc1C1NC(=O)N(c2cccc(C(F)(F)F)c2)C2=C1C(=O)CC2` (single isomer, unassigned) [Example C.4.1, 4-[2,5-Dioxo-1-(3-trifluoromethyl-phenyl)-2,3,4,5,6,7-hexahydro-1H-cyclopentapyrimidin-4-yl]-3-ethanesulfinyl-benzonitrile], the IC50 (read-out: IC50) came to 5.2 nM. In the case of `CC[S+]([O-])c1cc(C#N)ccc1C1NC(=O)N(c2cccc(C(F)(F)F)c2)C2=C1C(=O)CC2` (single isomer, unassigned) [Example C.4.2, 4-[2,5-Dioxo-1-(3-trifluoromethyl-phenyl)-2,3,4,5,6,7-hexahydro-1H-cyclopentapyrimidin-4-yl]-3-ethanesulfinyl-benzonitrile], the IC50 (read-out: IC50) is 8.9 nM.

On to `CC[S+]([O-])c1cc(C#N)ccc1C1C2=C(CCC2=O)N(c2cccc(C(F)(F)F)c2)C(=O)N1C(=O)NC` (single isomer, unassigned) [Example C.6.1, 4-(4-Cyano-2-ethanesulfinyl-phenyl)-2,5-dioxo-1-(3-trifluoromethyl-phenyl)-1,2,4,5,6,7-hexahydro-cyclopentapyrimidine-3-carboxylic acid methylamide], for which, under “read-out: IC50”, the IC50 is under 1 nM. On to `CC[S+]([O-])c1cc(C#N)ccc1C1C2=C(CCC2=O)N(c2cccc(C(F)(F)F)c2)C(=O)N1C(=O)NC` (single isomer, unassigned) [Example C.6.2, 4-(4-Cyano-2-ethanesulfinyl-phenyl)-2,5-dioxo-1-(3-trifluoromethyl-phenyl)-1,2,4,5,6,7-hexahydro-cyclopentapyrimidine-3-carboxylic acid methylamide], for which the IC50 (read-out: IC50) is under 1 nM. For the setting “IC50”, `CCS(=O)(=O)c1cc(C#N)ccc1C1C2=C(CCC2=O)N(c2ccnc(C(F)(F)F)c2)C(=O)N1C` (single isomer, unassigned) [Example D.3A, 3-Ethanesulfonyl-4-[3-methyl-2,5-dioxo-1-(2-trifluoromethyl-pyridin-4-yl)-2,3,4,5,6,7-hexahydro-1H-cyclopentapyrimidin-4-yl]-benzonitrile] registered an IC50 of 2810 nM.

As for `CCNC(=O)N1C(=O)N(c2ccnc(C(F)(F)F)c2)C2=C(C(=O)CC2)C1c1ccc(C#N)cc1S(=O)(=O)CC` (single isomer, unassigned) [Example D.4.1B, 4-(4-cyano-2-ethanesulfonyl-phenyl)-2,5-dioxo-1-(2-trifluoromethyl-pyridin-4-yl)-1,2,4,5,6,7-hexahydro-cyclopentapyrimidine-3-carboxylic acid ethylamide], the IC50 under setting [1] amounted to 338 nM. For `CCS(=O)(=O)c1cc(C#N)ccc1C1NC(=O)N(c2cccc(C(F)F)c2)C2=C1C(=O)CC2` (single isomer, unassigned) [Example D.5B, 4-[1-(3-Difluoromethyl-phenyl)-2,5-dioxo-2,3,4,5,6,7-hexahydro-1H-cyclopentapyrimidin-4-yl]-3-ethanesulfonyl-benzonitrile], for the setting “IC50”, inhibition was half-maximal at 892 nM (IC50). On to `COCCS(=O)(=O)c1cc(C#N)ccc1C1NC(=O)N(c2cccc(C(F)(F)F)c2)C2=C1C(=O)CC2` (stereo not drawn) [B.1.1], for which, under setting [1], the IC50 was 5.7 nM. Regarding `COCCS(=O)(=O)c1cc(C#N)ccc1C1C2=C(CCC2=O)N(c2cccc(C(F)(F)F)c2)C(=O)N1C` (stereo not drawn) [B.1.4], under setting [1], the IC50 was under 1 nM.

With `CS(=O)(=O)c1cc(C#N)ccc1C1NC(=O)N(c2cncc(C(F)(F)F)c2)C2=C1C(=O)CC2` (stereo not drawn) [D.2.1], the IC50 under setting [1] worked out at 60 nM.

Turning to `CS(=O)(=O)c1cc(C#N)ccc1C1NC(=O)N(c2cc(C(F)(F)F)ccn2)C2=C1C(=O)CC2` (stereo not drawn) [D.2.2], the IC50 under setting [1] was found to be 65 nM. Take `CS(=O)(=O)c1cc(C#N)ccc1C1NC(=O)N(c2cncc(Br)c2)C2=C1C(=O)CC2` (stereo not drawn) [D.2.3]: under setting [1], the IC50 was 101 nM. Consider `CS(=O)(=O)c1cc(C#N)ccc1C1NC(=O)N(c2cncc(Cl)c2)C2=C1C(=O)CC2` (stereo not drawn) [D.2.4], for which the half-maximal inhibitory concentration (IC50) under setting [1] was found to be 103 nM. Consider `CN1C(=O)N(c2cncc(C(F)(F)F)c2)C2=C(C(=O)CC2)C1c1ccc(C#N)cc1S(C)(=O)=O` (stereo not drawn) [D.3.1], for which the IC50 under setting [1] stood at 8.8 nM. Regarding `CN1C(=O)N(c2cc(C(F)(F)F)ccn2)C2=C(C(=O)CC2)C1c1ccc(C#N)cc1S(C)(=O)=O` (stereo not drawn) [D.3.2], where the note is “read-out: IC50”, the IC50 stood at 9.5 nM. Turning to `CN1C(=O)N(c2cncc(Br)c2)C2=C(C(=O)CC2)C1c1ccc(C#N)cc1S(C)(=O)=O` (stereo not drawn) [D.3.3], the IC50 under setting [1] was determined as 13 nM. `CN1C(=O)N(c2cncc(Cl)c2)C2=C(C(=O)CC2)C1c1ccc(C#N)cc1S(C)(=O)=O` (stereo not drawn) [D.3.4]: the IC50 under setting [1] amounted to 8.1 nM. Same read-out and setting: the value for `CNC(=O)N1C(=O)N(c2cncc(C(F)(F)F)c2)C2=C(C(=O)CC2)C1c1ccc(C#N)cc1S(C)(=O)=O` (stereo not drawn) [D.4.2] was under 1 nM. For `CCNC(=O)N1C(=O)N(c2cncc(C(F)(F)F)c2)C2=C(C(=O)CC2)C1c1ccc(C#N)cc1S(C)(=O)=O` (stereo not drawn) [D.4.3], under setting [1], the IC50 was under 1 nM. Turning to `CNC(=O)N1C(=O)N(c2cncc(Br)c2)C2=C(C(=O)CC2)C1c1ccc(C#N)cc1S(C)(=O)=O` (stereo not drawn) [D.4.6], under setting [1], the IC50 came out at 1.2 nM. For the compound `CCNC(=O)N1C(=O)N(c2cncc(Br)c2)C2=C(C(=O)CC2)C1c1ccc(C#N)cc1S(C)(=O)=O` (stereo not drawn) [D.4.7], the IC50 under setting [1] is under 1 nM. Turning to `CNC(=O)N1C(=O)N(c2cncc(Cl)c2)C2=C(C(=O)CC2)C1c1ccc(C#N)cc1S(C)(=O)=O` (stereo not drawn) [D.4.8], the IC50 (read-out: IC50) is under 1 nM. Turning to `CCNC(=O)N1C(=O)N(c2cncc(Cl)c2)C2=C(C(=O)CC2)C1c1ccc(C#N)cc1S(C)(=O)=O` (stereo not drawn) [D.4.9], under setting [1], the IC50 was under 1 nM.

As to `CN1C(=O)N(c2cccc(C(F)(F)F)c2)C2=C(C(=O)CC2)C1c1ccc(C#N)cc1CO` (stereo not drawn) [Example A.1, 3-Hydroxymethyl-4-[3-methyl-2,5-dioxo-1-(3-trifluoromethyl-phenyl)-2,3,4,5,6,7-hexahydro-1H-cyclopentapyrimidin-4-yl]-benzonitrile], the IC50 (read-out: IC50) stood at 1.6 nM. Regarding `N#Cc1ccc(C2NC(=O)N(c3cccc(C(F)(F)F)c3)C3=C2C(=O)CC3)c(S(=O)(=O)CCCO)c1` (stereo not drawn) [Example B.1, 4-[2,5-Dioxo-1-(3-trifluoromethyl-phenyl)-2,3,4,5,6,7-hexahydro-1H-cyclopentapyrimidin-4-yl]-3-(3-hydroxy-propane-1-sulfonyl)-benzonitrile], the IC50 under setting [1] was 2.1 nM. For the compound `CCNC(=O)N1C(=O)N(c2cccc(C(F)(F)F)c2)C2=C(C(=O)CC2)C1c1ccc(C#N)cc1[S+](C)[O-]` (stereo not drawn) [Example C.3, 4-(4-Cyano-2-methanesulfinyl-phenyl)-2,5-dioxo-1-(3-trifluoromethyl-phenyl)-1,2,4,5,6,7-hexahydro-cyclopentapyrimidine-3-carboxylic acid ethylamide], the IC50 under setting [1] is under 1 nM.

Turning to `CCS(=O)(=O)c1cc(C#N)ccc1C1NC(=O)N(c2ccnc(C(F)(F)F)c2)C2=C1C(=O)CC2` (stereo not drawn) [Example D.2, 4-[2,5-Dioxo-1-(2-trifluoromethyl-pyridin-4-yl)-2,3,4,5,6,7-hexahydro-1H-cyclopentapyrimidin-4-yl]-3-ethanesulfonyl-benzonitrile], under setting [1], the IC50 amounted to 24 nM. On the same count and under the same terms, next, `CCS(=O)(=O)c1cc(C#N)ccc1C1C2=C(CCC2=O)N(c2ccnc(C(F)(F)F)c2)C(=O)N1C(=O)NC` (stereo not drawn) [Example D.4, 4-(4-Cyano-2-ethanesulfonyl-phenyl)-2,5-dioxo-1-(2-trifluoromethyl-pyridin-4-yl)-1,2,4,5,6,7-hexahydro-cyclopentapyrimidine-3-carboxylic acid methylamide]: under 1 nM.

For orientation: IC50 means the concentration that gives 50% inhibition.
